Measurements reported in ChEMBL document CHEMBL1152303, “Synthesis and biological evaluation of a series of liver-selective phosphonic acid thyroid hormone receptor agonists and their prodrugs” (J Med Chem, 2008).

What was measured:
Rattus norvegicus [1] = experiment: Reduction in total plasma cholesterol level in cholesterol-fed Sprague-Dawley rat at 0.2 mg/kg, ip after 24 hrs; assay type: functional; parameters: scale not given: the % may be the effect or the level left; details: route intraperitoneal
Rattus norvegicus [2] = experiment: Reduction in total plasma cholesterol level in cholesterol-fed Sprague-Dawley rat at 0.5 mg/kg, po after 24 hrs; assay type: functional; parameters: scale not given: the % may be the effect or the level left
Rattus norvegicus [3] = experiment: Reduction in total plasma cholesterol level in cholesterol-fed orally dosed Sprague-Dawley rat after 24 hrs; assay type: functional; details: po
[4] = Metabolic stability in human liver S9 fraction assessed as activation rate at 100 uM after 1 hr; assay type: ADME, subcellular; details: s9, 1 h
[5] = Metabolic stability in human S9 liver fraction assessed as monoacid levels at 100 uM after 1 hr; assay type: ADME, subcellular; details: s9, 1 h
[6] = Metabolic stability in human S9 liver fraction assessed as prodrug remaining at 100 uM after 1 hr; assay type: ADME, subcellular; details: s9, 1 h
Rattus norvegicus [7] = experiment: Reduction in total plasma cholesterol level in cholesterol-fed orally dosed Sprague-Dawley rat after 24 hrs relative to control; assay type: functional; parameters: scale not given: the % may be the effect or the level left
[8] = molecular target: T1, Thyroid hormone receptor beta (Homo sapiens, UniProt P10828)
T1 sequence (P10828 whole entry): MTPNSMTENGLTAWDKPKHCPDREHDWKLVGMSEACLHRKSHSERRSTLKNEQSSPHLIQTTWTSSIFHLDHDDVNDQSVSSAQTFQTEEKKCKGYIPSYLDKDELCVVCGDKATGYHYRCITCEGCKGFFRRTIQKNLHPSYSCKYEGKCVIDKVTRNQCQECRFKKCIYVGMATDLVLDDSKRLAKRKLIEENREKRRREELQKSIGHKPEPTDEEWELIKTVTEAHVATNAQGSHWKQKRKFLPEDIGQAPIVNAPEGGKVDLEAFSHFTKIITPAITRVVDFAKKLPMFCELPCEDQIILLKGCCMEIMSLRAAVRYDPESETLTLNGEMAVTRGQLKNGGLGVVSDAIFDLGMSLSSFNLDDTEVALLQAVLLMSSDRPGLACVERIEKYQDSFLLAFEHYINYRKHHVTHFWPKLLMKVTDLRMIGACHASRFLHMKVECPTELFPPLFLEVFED
Description: Displacement of [125I]3,5,3'-triiodo-L-thyronine His-tagged human recombinant TRbeta1 by scintillation proximity assay

[9] = molecular target: T2, Thyroid hormone receptor alpha (Homo sapiens, UniProt P10827)
T2 sequence (P10827 whole entry): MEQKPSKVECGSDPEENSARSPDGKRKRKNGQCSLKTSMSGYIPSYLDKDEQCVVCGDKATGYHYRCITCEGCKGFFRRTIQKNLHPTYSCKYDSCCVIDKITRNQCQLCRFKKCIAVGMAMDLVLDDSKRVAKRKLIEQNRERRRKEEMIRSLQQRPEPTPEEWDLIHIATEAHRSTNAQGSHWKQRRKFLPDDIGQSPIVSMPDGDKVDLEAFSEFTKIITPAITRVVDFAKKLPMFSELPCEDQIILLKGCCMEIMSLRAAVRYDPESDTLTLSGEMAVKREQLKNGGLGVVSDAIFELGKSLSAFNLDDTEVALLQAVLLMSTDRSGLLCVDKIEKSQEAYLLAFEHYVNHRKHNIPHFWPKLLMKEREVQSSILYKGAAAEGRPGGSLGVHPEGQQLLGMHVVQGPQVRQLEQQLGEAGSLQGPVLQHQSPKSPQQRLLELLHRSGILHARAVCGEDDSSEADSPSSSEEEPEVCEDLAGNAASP
Description: Displacement of [125I]3,5,3'-triiodo-L-thyronine from His-tagged human recombinant TRalpha1 by scintillation proximity assay

Rattus norvegicus [10] = experiment: Agonist activity at thyroid hormone receptor in Sprague-Dawley rat assessed as liver mGPDH activity at 1 mg/kg administered through osmotic pump infusion per ug protein; assay type: functional
Rattus norvegicus [11] = experiment: Agonist activity at thyroid hormone receptor in Sprague-Dawley rat assessed as heart mGPDH activity at 1 mg/kg administered through osmotic pump infusion per ug protein; assay type: functional
[12] = AUClast in Sprague-Dawley rat at 3 mg/kg, iv; assay type: ADME, organism-based; parameters: time 0 - last, dose 3 mg/kg, route intravenous; details: plasma
[13] = AUClast in Sprague-Dawley rat at 3 mg/kg, po; assay type: ADME, organism-based; parameters: time 0 - last, dose 3 mg/kg, route oral; details: plasma
Rattus norvegicus [14] = experiment: Cmax in Sprague-Dawley rat at 3 mg/kg, iv; assay type: ADME, organism-based; parameters: dose 3 mg/kg, route intravenous; details: in vivo
Rattus norvegicus [15] = experiment: Cmax in Sprague-Dawley rat at 3 mg/kg, po; assay type: ADME, organism-based; parameters: dose 3 mg/kg, route oral; details: in vivo
[16] = Tmax in Sprague-Dawley rat at 3 mg/kg, iv; assay type: ADME, organism-based; parameters: dose 3 mg/kg, route intravenous; details: in vivo
Rattus norvegicus [17] = experiment: Tmax in Sprague-Dawley rat at 3 mg/kg, po; assay type: ADME, organism-based; parameters: dose 3 mg/kg, route oral; details: in vivo
Rattus norvegicus [18] = experiment: Half life in Sprague-Dawley rat at 3 mg/kg, iv; assay type: ADME, organism-based; parameters: dose 3 mg/kg, route intravenous; details: in vivo
Rattus norvegicus [19] = experiment: Half life in Sprague-Dawley rat at 3 mg/kg, po; assay type: ADME, organism-based; parameters: dose 3 mg/kg, route oral; details: in vivo
[20] = Mean residence time in Sprague-Dawley rat at 3 mg/kg, iv; assay type: ADME, organism-based; parameters: dose 3 mg/kg, route intravenous; details: in vivo
[21] = Mean residence time in Sprague-Dawley rat at 3 mg/kg, po; assay type: ADME, organism-based; parameters: dose 3 mg/kg, route oral; details: in vivo
Rattus norvegicus [22] = experiment: Mean absorption time in Sprague-Dawley rat at 3 mg/kg, po; assay type: ADME, organism-based; parameters: dose 3 mg/kg, route oral; details: in vivo
[23] = Oral bioavailability in Sprague-Dawley rat at 3 mg/kg; assay type: ADME, organism-based; details: in vivo
Rattus norvegicus [24] = experiment: AUClast in Sprague-Dawley rat assessed as 3,5-Dimethyl-4-(4'-hydroxy-3'-isopropylbenzyl)phenoxy]methylphosphonic acid level at 3 mg/kg, iv; assay type: ADME, organism-based, Plasma; parameters: time 0 - last, dose 3 mg/kg, route intravenous; details: in vivo
Rattus norvegicus [25] = experiment: AUClast in Sprague-Dawley rat assessed as 3,5-Dimethyl-4-(4'-hydroxy-3'-isopropylbenzyl)phenoxy]methylphosphonic acid level at 3 mg/kg, po; assay type: ADME, organism-based, Plasma; parameters: time 0 - last, dose 3 mg/kg, route oral; details: in vivo
Rattus norvegicus [26] = experiment: Cmax in Sprague-Dawley rat assessed as 3,5-Dimethyl-4-(4'-hydroxy-3'-isopropylbenzyl)phenoxy]methylphosphonic acid level at 3 mg/kg, iv; assay type: ADME, organism-based; parameters: dose 3 mg/kg, route intravenous; details: in vivo
Rattus norvegicus [27] = experiment: Cmax in Sprague-Dawley rat assessed as 3,5-Dimethyl-4-(4'-hydroxy-3'-isopropylbenzyl)phenoxy]methylphosphonic acid level at 3 mg/kg, po; assay type: ADME, organism-based; parameters: dose 3 mg/kg, route oral; details: in vivo
Rattus norvegicus [28] = experiment: Tmax in Sprague-Dawley rat assessed as 3,5-Dimethyl-4-(4'-hydroxy-3'-isopropylbenzyl)phenoxy]methylphosphonic acid level at 3 mg/kg, iv; assay type: ADME, organism-based; parameters: dose 3 mg/kg, route intravenous; details: in vivo
Rattus norvegicus [29] = experiment: Tmax in Sprague-Dawley rat assessed as 3,5-Dimethyl-4-(4'-hydroxy-3'-isopropylbenzyl)phenoxy]methylphosphonic acid level at 3 mg/kg, po; assay type: ADME, organism-based; parameters: dose 3 mg/kg, route oral; details: in vivo
Rattus norvegicus [30] = experiment: Half life in Sprague-Dawley rat assessed as 3,5-Dimethyl-4-(4'-hydroxy-3'-isopropylbenzyl)phenoxy]methylphosphonic acid level at 3 mg/kg, iv; assay type: ADME, organism-based; parameters: dose 3 mg/kg, route intravenous; details: in vivo
Rattus norvegicus [31] = experiment: Half life in Sprague-Dawley rat assessed as 3,5-Dimethyl-4-(4'-hydroxy-3'-isopropylbenzyl)phenoxy]methylphosphonic acid level at 3 mg/kg, po; assay type: ADME, organism-based; parameters: dose 3 mg/kg, route oral; details: in vivo
Rattus norvegicus [32] = experiment: Mean residence time in Sprague-Dawley rat assessed as 3,5-Dimethyl-4-(4'-hydroxy-3'-isopropylbenzyl)phenoxy]methylphosphonic acid level at 3 mg/kg, iv; assay type: ADME, organism-based; parameters: dose 3 mg/kg, route intravenous; details: in vivo
Rattus norvegicus [33] = experiment: Mean residence time in Sprague-Dawley rat assessed as 3,5-Dimethyl-4-(4'-hydroxy-3'-isopropylbenzyl)phenoxy]methylphosphonic acid level at 3 mg/kg, po; assay type: ADME, organism-based; parameters: dose 3 mg/kg, route oral; details: in vivo
Rattus norvegicus [34] = experiment: Mean absorption time in Sprague-Dawley rat assessed as 3,5-Dimethyl-4-(4'-hydroxy-3'-isopropylbenzyl)phenoxy]methylphosphonic acid level at 3 mg/kg, po; assay type: ADME, organism-based; parameters: dose 3 mg/kg, route oral; details: in vivo
Rattus norvegicus [35] = experiment: Oral bioavailability in Sprague-Dawley rat assessed as 3,5-Dimethyl-4-(4'-hydroxy-3'-isopropylbenzyl)phenoxy]methylphosphonic acid level at 3 mg/kg; assay type: ADME, organism-based; details: in vivo

Structure (SMILES): CC(C)c1cc(Oc2c(Br)cc(NCP(=O)(O)O)cc2Br)ccc1O
- Activity (Rattus norvegicus [1]): 47.7%

Structure (SMILES): CC(C)c1cc(Oc2c(I)cc(CP(=O)(O)O)cc2I)ccc1O
- Activity (Rattus norvegicus [1]): 39.4%

Structure (SMILES): Cc1cc(OCP(=O)(OCOC(=O)C(C)(C)C)OCOC(=O)C(C)(C)C)cc(C)c1Cc1ccc(O)c(C(C)C)c1
- Activity (Rattus norvegicus [2]): 33%
- ED50 (Rattus norvegicus [3]): 0.7 mg/kg
- Stability [4]: 134 pmol/min/mg
- Stability [5]: 79%
- Stability [6]: 11%
- Activity (Rattus norvegicus [7]): 46%

Structure (SMILES): Cc1cc(OC[P@@]2(=O)OCC[C@@H](c3ccc(Cl)cc3)O2)cc(C)c1Cc1ccc(O)c(C(C)C)c1
- Activity (Rattus norvegicus [2]): 28%

Structure (SMILES): CC(C)c1cc(Oc2c(Cl)cc(NCP(=O)(O)O)cc2Cl)ccc1O
- Ki [8]: 30.5 nM

Structure (SMILES): CC(C)c1cc(Oc2c(Br)cc(CP(=O)(O)O)cc2Br)ccc1O
- Ki [9]: 235 nM
- Ki [8]: 15.5 nM

Structure (SMILES): COc1cc(OCP(=O)(O)O)cc(OC)c1Cc1ccc(O)c(C(C)C)c1
- Ki [9]: 3300 nM

Structure (SMILES): Cc1cc(OC[P@@]2(=O)OCC[C@@H](c3cccnc3)O2)cc(C)c1Cc1ccc(O)c(C(C)C)c1 (relative stereo)
- Activity (Rattus norvegicus [2]): 39%

Structure (SMILES): Cc1cc(OC[P@@]2(=O)OCC[C@@H](c3cccc(F)c3)O2)cc(C)c1Cc1ccc(O)c(C(C)C)c1 (relative stereo)
- Activity (Rattus norvegicus [2]): 46%

Structure (SMILES): Cc1cc(OC[P@@]2(=O)OCC[C@@H](c3cc(Cl)cc(Cl)c3)O2)cc(C)c1Cc1ccc(O)c(C(C)C)c1 (relative stereo)
- Activity (Rattus norvegicus [2]): 29%

Structure (SMILES): Cc1cc(OC[P@@]2(=O)OCC[C@@H](c3ccncc3)O2)cc(C)c1Cc1ccc(O)c(C(C)C)c1 (relative stereo)
- Activity (Rattus norvegicus [2]): 29%

Structure (SMILES): Cc1cc(OC[P@@]2(=O)OCC[C@@H](c3cccc(Br)c3)O2)cc(C)c1Cc1ccc(O)c(C(C)C)c1 (relative stereo)
- Activity (Rattus norvegicus [2]): 0%

Structure (SMILES): N[C@@H](Cc1cc(I)c(Oc2ccc(O)c(I)c2)c(I)c1)C(=O)O [LIOTHYRONINE]
- Activity (Rattus norvegicus [10]): 7.52 U/min
- Activity (Rattus norvegicus [11]): 4.18 U/min

Structure (SMILES): Cc1cc(OCP(=O)(O)O)cc(C)c1Cc1ccc(O)c(C(C)C)c1 [MB07344]
- Activity (Rattus norvegicus [10]): 7.37 U/min
- Activity (Rattus norvegicus [11]): 1.66 U/min
- Activity (Rattus norvegicus [1]): 37.2%
- Ki [8]: 2.95 nM

Structure (SMILES): Cc1cc(OCP2(=O)OCC[C@@H](c3cccc(Cl)c3)O2)cc(C)c1Cc1ccc(O)c(C(C)C)c1 (stereo not given in full) [MB07811]
- Activity (Rattus norvegicus [2]): 36%
- ED50 (Rattus norvegicus [3]): 0.48 mg/kg
- AUC(0-t) [12]: 260 ng·h/mL
- AUC(0-t) [13]: 26 ng·h/mL
- Cmax (Rattus norvegicus [14]): 600 ng/mL
- Cmax (Rattus norvegicus [15]): 12 ng/mL
- Tmax [16]: 0 h
- Tmax (Rattus norvegicus [17]): 2.1 h
- t1/2 (Rattus norvegicus [18]): 1.23 h
- t1/2 (Rattus norvegicus [19]): 0.95 h
- MRT [20]: 1.2 h
- MRT [21]: 2.49 h
- MAT (Rattus norvegicus [22]): 1.29 h
- bioavailability [23]: 9.9%
- Activity (Rattus norvegicus [7]): 55%
- AUClast (Rattus norvegicus [24]): 340 ng·h/mL
- AUClast (Rattus norvegicus [25]): 135 ng·h/mL
- Cmax (Rattus norvegicus [26]): 92 ng/mL
- Cmax (Rattus norvegicus [27]): 18 ng/mL
- Tmax (Rattus norvegicus [28]): 0.6 h
- Tmax (Rattus norvegicus [29]): 3.6 h
- t1/2 (Rattus norvegicus [30]): 8.82 h
- t1/2 (Rattus norvegicus [31]): 9.25 h
- MRT (Rattus norvegicus [32]): 4.49 h
- MRT (Rattus norvegicus [33]): 7.91 h
- MAT (Rattus norvegicus [34]): 3.4 h
- F (Rattus norvegicus [35]): 39.2%

Structure (SMILES): Cc1cc(OCC(=O)O)cc(C)c1Cc1ccc(O)c(C(C)C)c1 [SOBETIROME]
- Activity (Rattus norvegicus [10]): 7.88 U/min
- Activity (Rattus norvegicus [11]): 4.08 U/min

Structure (SMILES): O=C(O)Cc1cc(I)c(Oc2ccc(O)c(I)c2)c(I)c1 [TIRATRICOL]
- Activity (Rattus norvegicus [10]): 7.1 U/min
- Activity (Rattus norvegicus [11]): 3.68 U/min
